What was measured:
[1] = system: angiotensin I converting enzyme (ACE); assay: ACE enzymatic activity (Hipuril-His-Leu substrate, Friedland and Silverstein method) in essential hypertensive patients after oral captopril; assay type: in vivo, human; details: captopril 50 to 150 mg orally
Description: Three days study, each day, each six hours collect duration; samples of blood and urine were collected at the final basal period (1 hour), after they reach the supine position, as well as at the end of the study (after 6 hours). […] The enzymatic activity using Hipuril-His-Leu substrate was measured by Friedland and Silverstein method (1976).

[2] = system: SHR rats; assay: SHR rats treated with enalapril: blood pressure; assay type: in vivo, rat; details: isogenic hypertensive SHR rats treated with enalapril
[3] = system: enzyme of 63 kDa molecular weight which breaks the Phe8-Arg9 BK bond; details: enzyme contained in urine, described by Ryan et al 1978; cited from earlier work

Q: Which “inhibition on the enzyme activity” value ([1]; essential (light and/or mild) arterial hypertensive patients, one-day dose, between 1 and 2 hours after administration, Hipuril-His-Leu substrate) does the source give for `C[C@H](CS)C(=O)N1CCC[C@H]1C(=O)O` [captopril] here?
A: Its value is 50%.

Q: What about the “enzyme activity at the end of the studies” value ([1]; essential arterial hypertensive patients, end of the study (after 6 hours)) of the same molecule?
A: The value was “returning to the basal levels”.

Q: For `CCOC(=O)[C@H](CCc1ccccc1)N[C@@H](C)C(=O)N1CCC[C@H]1C(=O)O` [enalapril], which “blood pressure of treated SHR rats” value [2] is on record?
A: The value was “pressure under control”.

Q: Which “inhibition of the 63 kDa urine enzyme” value [3] does the source give for BPP9a here?
A: The value was “not inhibited”.
